Structures are written as SMILES. Like-named read-outs stand apart in the source and are kept apart here.

In this test the test system is Hh signaling pathway. The test can be described thus: NIH3T3-GRE-Luc luciferase reporter assay (primary assay). It counts as cell-based. An excerpt: NIH3T3 cells (CRL-1658, ATCC) were maintained in DMEM (Gibico) supplemented with 10% FBS (Hyclone). GRE-Luc plasmid was generated by inserting 8×Gli-1 responsive element (GRE) into the multiple cloning site of pGL4.26 vector (Promega). NIH3T3-GRE-Luc reporter cell line was established by hygromycin (Invitrogen) selection after transfected with GRE-Luc luciferase reporter plasmid. Single clones were validated by the induction of luciferase by recombinant sonic hedgehog (sHh) protein or small molecule agonist SAG (ABIN629346). Selected clone was used to monitor the Hh signaling.
The NIH3T3-GRE-Luc cells were maintained in complete culture medium (DMEM with 4 mM L-Gln, 1.5 g/L sodium bicarbonate and 4.5 g/L glucose supplemented with 100 μg/mL hygromycin and 10% FBS). When confluent, the cells were trypsinized and re-suspended in assay medium (0.5% serum-containing DMEM). After 100 µL/well of cells suspension was added to the 96-well-plate (Final cell concentration is 15,000 cells/well), cells were cultured for additional 48 hours before adding the compounds.
Compounds were serially diluted in DMSO and further diluted with assay medium. In an embodiment, 10 nM SAG was added in assay medium as the agonist of Hh signaling. After the compounds and agonist were prepared, the medium was removed carefully. 100 μL of assay medium containing compound and agonist was added to the cell with care. Cell plates were incubated at 37° C. for additional 48 hours.
Following the 48 hours incubation, 40 μL/well of luciferase media (Brigh-Glo, Promega) was added to the cells. The plate was incubated at room temperature for 5 minutes under gentle shaking. Luminescence signal was measured with plate reader (PHERAstar FS, BMG). The potency of compounds was calculated based on the inhibition of luminescence signaling.
NIH3T3 cells (CRL-1658, ATCC) were maintained in DMEM (11965, Gibico) supplemented with 10% FBS (Hyclone). GRE-Luc plasmid was generated by cloning 8×Gli-1 responsive element (GRE) into the MCS of pGL4.26 (Promega). NIH3T3-GRE-Luc reporter cell lines were established by hygromycin (Invitrogen) selection after transfection with GRE-Luc luciferase reporter plasmid. Single clones were validated for the assay quality with N-terminal fragment of recombinant sonic hedgehog protein or small molecule agonist SAG (ABIN629346). Selected clone were used to monitor the Hh signaling.
The NIH3T3-GRE-Luc cells were maintained in complete culture medium (DMEM with 4 mM L-Gln, 1.5 g/L sodium bicarbonate and 4.5 g/L glucose supplemented with 100 ug/ml hygromycin and 10% FBS). When confluent, the cells were trypsinized and resuspended in assay medium (0.5% serum-containing DMEM). After 100 ul/well of cells suspension was added to the 96-well-plate (Final cell concentration is 15,000 cells/well), cells were cultured for additional 48 hours before adding the compounds.
Compounds were serially diluted in DMSO and further diluted with assay medium. In an embodiment, 10 nM SAG was added in assay medium as the agonist of Hh signaling. After the compounds and agonist were prepared, carefully remove medium (Aspirate the medium with pipette instead of vacuum, or else the NIH3T3 cells monolayer will be detached). 100 ul of assay medium containing compound or agonist was added to the cell with care. Cell plates were incubated at 37 degree for additional 48 hours.
Following the 48 hours incubation, 40 ul/well of luciferase media (Brigh-Glo, Promega) was added to the cells. The plate was incubated at room temperature for 5 min under gentle shaking. Luminescence signal was measured with plate reader (PHERAstar FS, BMG). The potency of compounds was calculated basing on the inhibition of luminescence signaling.

The mark [1] stands for this setting: 48 h, 10 nM SAG as agonist, 48 hours, read-out: Effect IC50 (nM)(GRE reporter assay).
Setting [2] is: IC50 of vismodegib over that of the tested compound in the same assay.
[3] abbreviates: IC50 value of Vismodegib over that of the tested compound in the same assay.
Where [4] appears, read: primary assay, Table 5, read-out: SMO IC50.

By IC50 is commonly meant the concentration that gives 50% inhibition. As for `Cc1cnc(-c2cc(N3CCc4nc(N5CCC(O)CC5)ncc4C3C)ncc2Cl)c(C)c1` (racemic) [B], the 50% inhibitory concentration (IC50) under setting [1] came out at 2.7 nM, the IC50 under setting [4] came out at 2.7 nM and the IC50 (read-out: IC50 (Hh pathway)) came out at 2.7 nM. In addition, the Ratio was 5.0 under setting [2] and 5.0 under setting [3].
With `Cc1cnc(-c2cc(N3CCc4nc(N5CCC(O)CC5)ncc4[C@H]3C)ncc2Cl)c(C)c1` [Compound B1, (R)-1-(6-(5′-chloro-3,5-dimethyl-[2,4′-bipyridin]-2′-yl)-5-methyl-5,6,7,8-tetrahydropyrido[4,3-d]pyrimidin-2-yl)piperidin-4-ol], the “Hh pathway inhibitory activity compared to compound B2 of S configuration” value is on record as “more than 20 fold” and the “increase of inhibitory activity against Hedgehog pathway compared with A-55” value is “about 12 folds”. Also, the IC50 under setting [1] stood at 0.8 nM. Moreover, under setting [2], the Ratio turned out to be 22.4. The Ratio under setting [3] is reported as 22.4. Also, the “increase of Hh pathway inhibitory activity compared to racemic compound B” value (chiral compound vs racemic compound) is listed as “about 3 fold”. Under setting [4], the 50% inhibitory concentration (IC50) worked out at 0.8 nM. Moreover, where the note is “read-out: IC50 (Hh pathway)”, the IC50 is 0.8 nM.

(Values after patent US10919889B2, “Chiral heterocyclic compound with hedgehog pathway antagonist activity, method and use thereof” (SUZHOU KINTOR PHARMACEUTICALS, INC., priority 2016, dated 2021).)
